Test results taken from patent publication US12303497B2, “Anti-androgens for the treatment of metastatic castration-sensitive prostate cancer” (priority 2019, dated 2025).

System: patients with metastatic castration-sensitive prostate cancer (mCSPC)

SMILES: CNC(=O)c1ccc(N2C(=S)N(c3cnc(C#N)c(C(F)(F)F)c3)C(=O)C23CCC3)cc1F [Apalutamide, 4-[7-(6-cyano-5-trifluoromethylpyridin-3-yl)-8-oxo-6-thioxo-5,7-diazaspiro[3.4]oct-5-yl]-2-fluoro-N-methylbenzamide]
- AE leading to dose interruption: Hyponatremia (All Grades): 1 (0.2) no. (%)
- AE leading to dose interruption: Infections (All Grades): 6 (1.1) no. (%)
- AE leading to dose interruption: Influenza-like illness (All Grades): 1 (0.2) no. (%)
- AE leading to dose interruption: Insomnia (All Grades): 3 (0.6) no. (%)
- AE leading to dose interruption: Ischemic cardiac events (All Grades): 1 (0.2) no. (%)
- AE leading to dose interruption: Large intestinal ulcer perforation (All Grades): 1 (0.2) no. (%)
- AE leading to dose interruption: Mental status changes (All Grades): 1 (0.2) no. (%)
- AE leading to dose interruption: Muscular weakness (All Grades): 1 (0.2) no. (%)
- AE leading to dose interruption: Musculoskeletal stiffness (All Grades): 0 no. (%)
- AE leading to dose interruption: Nausea (All Grades): 1 (0.2) no. (%)
- AE leading to dose interruption: Neutropenia (All Grades): 2 (0.4) no. (%)
- AE leading to dose interruption: New cancer neoplasm (All Grades): 3 (0.6) no. (%)
- AE leading to dose interruption: Osteoarthritis (All Grades): 0 no. (%)
- AE leading to dose interruption: Osteoporosis (All Grades): 1 (0.2) no. (%)
- AE leading to dose interruption: Pain (grouped term) (All Grades): 9 (1.7) no. (%)
- AE leading to dose interruption: Pathological fracture (All Grades): 0 no. (%)
- AE leading to dose interruption: Peripheral edema (All Grades): 1 (0.2) no. (%)
- AE leading to dose interruption: Peripheral swelling (All Grades): 0 no. (%)
- AE leading to dose interruption: Proctalgia (All Grades): 1 (0.2) no. (%)
- AE leading to dose interruption: Pyrexia (All Grades): 3 (0.6) no. (%)
- AE leading to dose interruption: Rash (grouped term) (All Grades): 44 (8.4) no. (%)
- AE leading to dose interruption: Renal injury (All Grades): 0 no. (%)
- AE leading to dose interruption: Rheumatoid arthritis (All Grades): 1 (0.2) no. (%)
- AE leading to dose interruption: Seizure (All Grades): 1 (0.2) no. (%)
- AE leading to dose interruption: Spinal cord compression (All Grades): 1 (0.2) no. (%)
- AE leading to dose interruption: Stomatitis (All Grades): 1 (0.2) no. (%)
- AE leading to dose interruption: Subarachnoid hematoma (All Grades): 1 (0.2) no. (%)
- AE leading to dose interruption: Subarachnoid hemorrhage (All Grades): 1 (0.2) no. (%)
- AE leading to dose interruption: Subdural hemorrhage (All Grades): 0 no. (%)
- AE leading to dose interruption: Syncope (All Grades): 1 (0.2) no. (%)
- AE leading to dose interruption: Thrombocytopenia (All Grades): 1 (0.2) no. (%)
- AE leading to dose interruption: Tongue ulceration (All Grades): 1 (0.2) no. (%)
- AE leading to dose interruption: Urethral stenosis (All Grades): 0 no. (%)
- AE leading to dose interruption: Urinary incontinence (All Grades): 1 (0.2) no. (%)
- AE leading to dose interruption: Urinary retention (All Grades): 2 (0.4) no. (%)
- AE leading to dose interruption: Urinary tract obstruction (All Grades): 1 (0.2) no. (%)
- AE leading to dose interruption: Vertigo (All Grades): 1 (0.2) no. (%)
- AE leading to dose interruption: Vomiting (All Grades): 3 (0.6) no. (%)
- AE leading to dose interruption: Weight increased (All Grades): 0 no. (%)
- AE leading to dose reduction: Aspartate aminotransferase or alanine aminotransferase increased (All Grades): 0 no. (%)
- AE leading to dose reduction: Asthenia (All Grades): 0 no. (%)
- AE leading to dose reduction: Cognitive disorder (All Grades): 1 (0.2) no. (%)
- AE leading to dose reduction: Dehydration (All Grades): 1 (0.2) no. (%)
- AE leading to dose reduction: Fatigue (All Grades): 2 (0.4) no. (%)
- AE leading to dose reduction: General physical health deterioration (All Grades): 1 (0.2) no. (%)
- AE leading to dose reduction: Headache (All Grades): 1 (0.2) no. (%)
- AE leading to dose reduction: Hot flush (All Grades): 1 (0.2) no. (%)
- AE leading to dose reduction: Hypertension (All Grades): 1 (0.2) no. (%)
- AE leading to dose reduction: Lethargy (All Grades): 0 no. (%)
- AE leading to dose reduction: Neutropenia (All Grades): 2 (0.4) no. (%)
- AE leading to dose reduction: Pain (All Grades): 1 (0.2) no. (%)
- AE leading to dose reduction: Performance status decreased (All Grades): 0 no. (%)
- AE leading to dose reduction: Rash (grouped term) (All Grades): 28 (5.3) no. (%)
- AE leading to dose reduction: Vertigo (All Grades): 1 (0.2) no. (%)
- AE leading to dose reduction: Weight decreased (All Grades): 1 (0.2) no. (%)
- AE of special interest: Fall (All Grades): 39 (7.4) no. (%)
- AE of special interest: Fracture (grouped term) (All Grades): 33 (6.3) no. (%)
- AE of special interest: Hypothyroidism (grouped term) (All Grades): 34 (6.5) no. (%)
- AE of special interest: Rash (grouped term) (All Grades): 142 (27.1) no. (%)
- AE of special interest: Seizure (grouped term) (All Grades): 3 (0.6) no. (%)
- Patients with treatment-emergent adverse events leading to discontinuation (All Grades): 42 (8.0) no. (%)
- Patients with treatment-emergent adverse events leading to dose reduction (All Grades): 37 (7.1) no. (%)
- Patients with treatment-emergent events leading to dose interruption (All Grades): 104 (19.8) no. (%)
- TEAE: Anemia (All Grades): 48 (9.2) no. (%)
- TEAE: Arthralgia (All Grades): 91 (17.4) no. (%)
- TEAE: Asthenia (All Grades): 37 (7.1) no. (%)
- TEAE: Back pain (All Grades): 91 (17.4) no. (%)
- TEAE: Blood alkaline phosphatase increased (All Grades): 16 (3.1) no. (%)
- TEAE: Bone pain (All Grades): 34 (6.5) no. (%)
- TEAE: Constipation (All Grades): 47 (9.0) no. (%)
- TEAE: Fatigue (All Grades): 103 (19.7) no. (%)
- TEAE: Hot flush (All Grades): 119 (22.7) no. (%)
- TEAE: Hypertension (All Grades): 93 (17.7) no. (%)
- TEAE: Pain in extremity (All Grades): 64 (12.2) no. (%)
- TEAE: Pruritus (All Grades): 56 (10.7) no. (%)
- TEAE: Rash generalized (All Grades): 34 (6.5) no. (%)
- TEAE: Urinary retention (All Grades): 13 (2.5) no. (%)
- TEAE: Weight increased (All Grades): 54 (10.3) no. (%)
- AE leading to discontinuation: Alanine aminotransferase increased (Grade ≥3): 0 no. (%)
- AE leading to discontinuation: Anxiety (Grade ≥3): 0 no. (%)
- AE leading to discontinuation: Atrial fibrillation (Grade ≥3): 1 (0.2) no. (%)
- AE leading to discontinuation: Cardiac failure (Grade ≥3): 0 no. (%)
- AE leading to discontinuation: Cardio-respiratory arrest (Grade ≥3): 1 (0.2) no. (%)
- AE leading to discontinuation: Cardiogenic shock (Grade ≥3): 1 (0.2) no. (%)
- AE leading to discontinuation: Cerebrovascular disorder (Grade ≥3): 1 (0.2) no. (%)
- AE leading to discontinuation: Cognitive disorder (Grade ≥3): 0 no. (%)
- AE leading to discontinuation: Dehydration (Grade ≥3): 0 no. (%)
- AE leading to discontinuation: Dyspnea (Grade ≥3): 0 no. (%)
- AE leading to discontinuation: Euphoric mood (Grade ≥3): 0 no. (%)
- AE leading to discontinuation: Fatigue (Grade ≥3): 1 (0.2) no. (%)
- AE leading to discontinuation: Hot flush (Grade ≥3): 0 no. (%)
- AE leading to discontinuation: Hypothermia (Grade ≥3): 0 no. (%)
- AE leading to discontinuation: Infections (Grade ≥3): 1 (0.2) no. (%)
- AE leading to discontinuation: Intracranial hemorrhage (Grade ≥3): 0 no. (%)
- AE leading to discontinuation: Ischemic cardiac events (Grade ≥3): 2 (0.4) no. (%)
- AE leading to discontinuation: Large intestinal ulcer perforation (Grade ≥3): 1 (0.2) no. (%)
